Laboratory results published in patent US20070048385A1, “Microcapsules by coacervation containing a pharmaceutical incorporated in the coating polymer” (priority 2003, published 2007).

What was measured:
[1] = Dissolution test at pH 6.8 according to USP 26; type: physicochemical
Method: A dissolution test is carried out on the microcapsules thus obtained comparing them with anhydrous theophylline in crystalline form.
The dissolution test was performed according to USP 26.
A dissolution test is carried out on the microcapsules obtained in Examples 5 and 6 according to the method previously described for Example 4
Dissolution test was performed according to USP 26
A dissolution test is carried out on the microcapsules thus obtained compared to fluoxetine raw material.

[2] = Dissolution test at pH 1.2 according to USP 26; type: physicochemical; details: caffeine
Method: The microcapsules obtained, when analysed with an electronic microscope (FIG. 3), show a distribution of the particles of the active principle within the polymeric membrane in the form of solid particles that are prevalently disposed at the interface between the polymer and the core. […] Dissolution test was performed according to USP 26.

Cn1c(=O)c2[nH]cnc2n(C)c1=O [Anhydrous Theophylline]
Dissolution % at pH 6.8, 5 min ([1]; theophylline): 65%
Dissolution % at pH 6.8, 10 min ([1]; theophylline, T2 second head): 100%
Dissolution % at pH 6.8, 15 min ([1]; 15 min, theophylline): 100%

Cn1c(=O)c2c(ncn2C)n(C)c1=O [Caffeine]
Dissolution % at pH 1.2, 60 min [2]: 100%

CNCCC(Oc1ccc(C(F)(F)F)cc1)c1ccccc1 (stereo not shown) [Fluoxetine]
Dissolution % at pH 6.8, 5 min ([1]; fluoxetine): 55%
Dissolution % at pH 6.8, 10 min ([1]; fluoxetine): 75%
Dissolution % at pH 6.8, 20 min ([1]; 20 min, fluoxetine): 100%
